Measured values published in patent publication US8748415B2 (priority 2011, dated 2014).
pEC50: −log10 of the molar value.

System: recombinant NL4-3 virus (Renilla luciferase in nef, Gag P373S)
Assay: HIV cell culture assay (luciferase activity in MT-2 cells infected with NLRluc recombinant virus)
Format: cell-based
Conditions: NL43, MT-2 cells infected 4-5 days with NLRluc recombinant virus
Protocol: HIV cell culture assay—MT-2 cells and 293T cells were obtained from the NIH AIDS Research and Reference Reagent Program. MT-2 cells were propagated in RPMI 1640 media supplemented with 10% heat inactivated fetal bovine serum, […]. The 293T cells were propagated in DMEM media supplemented with 10% heat inactivated fetal bovine serum (FBS), 100 units/ml penicillin G and 100 μg/ml streptomycin. The proviral DNA clone of NL4-3 was obtained from the NIH AIDS Research and Reference Reagent Program. A recombinant NL4-3 virus, in which a section of the nef gene from NL4-3 was replaced with the Renilla luciferase gene, was used as a reference virus. In addition, residue Gag P373 was converted to P373S. Briefly, the recombinant virus was prepared by transfection of the altered proviral clone of NL4-3. Transfections were performed in 293T cells using LipofectAMINE PLUS from Invitrogen (Carlsbad, Calif.), according to manufacturer's instruction. The virus was titered in MT-2 cells using luciferase enzyme activity as a marker. Luciferase was quantitated using the Dual Luciferase kit from Promega (Madison, Wis.), with modifications to the manufacturer's protocol. The diluted Passive Lysis solution was pre-mixed with the re-suspended Luciferase Assay Reagent and the re-suspended Stop & Glo Substrate (2:1:1 ratio). Fifty (50) μL of the mixture was added to each aspirated well on assay plates and luciferase activity was measured immediately on a Wallac TriLux (Perkin-Elmer). Antiviral activities of inhibitors toward the recombinant virus were quantified by measuring luciferase activity in cells infected for 4-5 days with NLRluc recombinants in the presence serial dilutions of the inhibitor. Table 1 is the key for the data in Table 2.

C=C(C)[C@@H]1CC[C@]2(CNC(=O)CCC(=O)O)CC[C@]3(C)[C@H](CC[C@@H]4[C@@]5(C)CC=C(c6ccc(C(=O)O)cc6)C(C)(C)[C@@H]5CC[C@]43C)[C@@H]12 [Example 169, 4-((1R,3aS,5aR,5bR,7aR,11aS,11bR,13aR,13bR)-3a-((3-carboxypropanamido)methyl)-5a,5b,8,8,11a-pentamethyl-1-(prop-1-en-2-yl)-2,3,3a,4,5,5a,5b,6,7,7a,8,11,11a,11b,12,13,13a,13b-octadecahydro-1H-cyclopenta[a]chrysen-9-yl)benzoic acid]
pEC50 (class symbol): > 7.00

C=C(C)[C@@H]1CC[C@]2(CNC(=O)CN3CCCC3=O)CC[C@]3(C)[C@H](CC[C@@H]4[C@@]5(C)CC=C(c6ccc(C(=O)O)cc6)C(C)(C)[C@@H]5CC[C@]43C)[C@@H]12 [Example 133, 4-((1R,3aS,5aR,5bR,7aR,11aS,11bR,13aR,13bR)-5a, 5b,8,8,11a-pentamethyl-3a-((2-(2-oxopyrrolidin-1-yl)acetamido)methyl)-1-(prop-1-en-2-yl)-2,3,3a,4,5,5a,5b,6,7,7a,8,11,11a,11b,12,13,13a,13b-octadecahydro-1H-cyclopenta[a]chrysen-9-yl)benzoic acid]
pEC50 (class symbol): > 7.00

C=C(C)[C@@H]1CC[C@]2(CNCCN3CCC(F)(F)CC3)CC[C@]3(C)[C@H](CC[C@@H]4[C@@]5(C)CC=C(c6ccc(C(=O)O)cc6)C(C)(C)[C@@H]5CC[C@]43C)[C@@H]12 [Example 48, 4-((1R,3aS,5aR,5bR,7aR,11aS,11bR,13aR,13bR)-3a-((2-(4,4-difluoropiperidin-1-yl)ethylamino)methyl)-5a,5b,8,8,11a-pentamethyl-1-(prop-1-en-2-yl)-2,3,3a,4,5,5a,5b,6,7,7a,8,11,11a,11b,12,13,13a,13b-octadecahydro-1H-cyclopenta[a]chrysen-9-yl)benzoic acid]
pEC50 (class symbol): > 7.00

C=C(C)[C@@H]1CC[C@]2(CNCCCBr)CC[C@]3(C)[C@H](CC[C@@H]4[C@@]5(C)CC=C(c6ccc(C(=O)O)cc6)C(C)(C)[C@@H]5CC[C@]43C)[C@@H]12 [Example 65, 4-((1R,3aS,5aR,5bR,7aR,11aS,11bR,13aR,13bR)-3a-((3-bromopropylamino)methyl)-5a,5b,8,8,11a-pentamethyl-1-(prop-1-en-2-yl)-2,3,3a,4,5,5a,5b,6,7,7a,8,11,11a,11b,12,13,13a,13b-octadecahydro-1H-cyclopenta[a]chrysen-9-yl)benzoic acid]
pEC50 (numeric value): 9.00

C=C(C)[C@@H]1CC[C@]2(CN3CCS(=O)(=O)CC3)CC[C@]3(C)[C@H](CC[C@@H]4[C@@]5(C)CC=C(c6ccc(C(=O)O)cc6)C(C)(C)[C@@H]5CC[C@]43C)[C@@H]12 [Example 168, 4-((1R,3aS,5aR,5bR,7aR,11aS,11bR,13aR,13bR)-3a-((1,1-dioxido-4-thiomorpholinyl)methyl)-1-isopropenyl-5a,5b,8,8,11a-pentamethyl-2,3,3a,4,5,5a,5b,6,7,7a,8,11,11a,11b,12,13,13a,13b-octadecahydro-1H-cyclopenta[a]chrysen-9-yl)benzoic acid]
pEC50 (class symbol): > 7.00

C=C(C)[C@@H]1CC[C@]2(CNCCC(=O)N3CCOCC3)CC[C@]3(C)[C@H](CC[C@@H]4[C@@]5(C)CC=C(c6ccc(C(=O)O)cc6)C(C)(C)[C@@H]5CC[C@]43C)[C@@H]12 [Example 107, 4-((1R,3aS,5aR,5bR,7aR,11aS,11bR,13aR,13bR)-5a,5b,8,8,11a-pentamethyl-3a-((3-morpholino-3-oxopropylamino)methyl)-1-(prop-1-en-2-yl)-2,3,3a,4,5,5a,5b,6,7,7a,8,11,11a,11b,12,13,13a,13b-octadecahydro-1H-cyclopenta[a]chrysen-9-yl)benzoic acid]
pEC50 (class symbol): > 7.00

C=C(C)[C@@H]1CC[C@]2(CNC(=O)NCC(=O)O)CC[C@]3(C)[C@H](CC[C@@H]4[C@@]5(C)CC=C(c6ccc(C(=O)O)cc6)C(C)(C)[C@@H]5CC[C@]43C)[C@@H]12 [Example 157, 4-((1R,3aS,5aR,5bR,7aR,11aS,11bR,13aR,13bR)-3a-((3-(carboxymethyl)ureido)methyl)-5a,5b,8,8,11a-pentamethyl-1-(prop-1-en-2-yl)-2,3,3a,4,5,5a,5b,6,7,7a,8,11,11a,11b,12,13,13a,13b-octadecahydro-1H-cyclopenta[a]chrysen-9-yl)benzoic acid]
pEC50 (numeric value): 7.40

C=C(C)[C@@H]1CC[C@]2(CNCCCN3C(=O)CCC3=O)CC[C@]3(C)[C@H](CC[C@@H]4[C@@]5(C)CC=C(c6ccc(C(=O)O)cc6)C(C)(C)[C@@H]5CC[C@]43C)[C@@H]12 [Example 71, 4-((1R,3aS,5aR,5bR,7aR,11aS,11bR,13aR,13bR)-3a-((3-(2,5-dioxopyrrolidin-1-yl)propylamino)methyl)-5a,5b,8,8,11a-pentamethyl-1-(prop-1-en-2-yl)-2,3,3a,4,5,5a,5b,6,7,7a,8,11,11a,11b,12,13,13a,13b-octadecahydro-1H-cyclopenta[a]chrysen-9-yl)benzoic acid]
pEC50 (class symbol): > 7.00

C=C(C)[C@@H]1CC[C@]2(CNC(=O)OCCN3CCNCC3)CC[C@]3(C)[C@H](CC[C@@H]4[C@@]5(C)CC=C(c6ccc(C(=O)O)cc6)C(C)(C)[C@@H]5CC[C@]43C)[C@@H]12 [Example 163, 4-((1R,3aS,5aR,5bR,7aR,11aS,11bR,13aR,13bR)-5a,5b,8,8,11a-pentamethyl-3a-(((2-(piperazin-1-yl)ethoxy)carbonylamino)methyl)-1-(prop-1-en-2-yl)-2,3,3a,4,5,5a,5b,6,7,7a,8,11,11a,11b,12,13,13a,13b-octadecahydro-1H-cyclopenta[a]chrysen-9-yl)benzoic acid]
pEC50 (class symbol): > 7.00

C=C(C)[C@@H]1CC[C@]2(CNCCC(=O)N3CCSCC3)CC[C@]3(C)[C@H](CC[C@@H]4[C@@]5(C)CC=C(c6ccc(C(=O)O)cc6)C(C)(C)[C@@H]5CC[C@]43C)[C@@H]12 [Example 122, 4-((1R,3aS,5aR,5bR,7aR,11aS,11bR,13aR,13bR)-5a,5b,8,8,11a-pentamethyl-3a-((3-oxo-3-thiomorpholinopropylamino)methyl)-1-(prop-1-en-2-yl)-2,3,3a,4,5,5a,5b,6,7,7a,8,11,11a,11b,12,13,13a,13b-octadecahydro-1H-cyclopenta[a]chrysen-9-yl)benzoic acid]
pEC50 (class symbol): > 7.00

C=C(C)[C@@H]1CC[C@]2(CNCCCN3CCCC3)CC[C@]3(C)[C@H](CC[C@@H]4[C@@]5(C)CC=C(c6ccc(C(=O)O)cc6)C(C)(C)[C@@H]5CC[C@]43C)[C@@H]12 [Example 68, 4-((1R,3aS,5aR,5bR,7aR,11aS,11bR,13aR,13bR)-5a,5b,8,8,11a-pentamethyl-1-(prop-1-en-2-yl)-3a-((3-(pyrrolidin-1-yl)propylamino)methyl)-2,3,3a,4,5,5a,5b,6,7,7a,8,11,11a,11b,12,13,13a,13b-octadecahydro-1H-cyclopenta[a]chrysen-9-yl)benzoic acid]
pEC50 (class symbol): > 7.00

C=C(C)[C@@H]1CC[C@]2(CN)CC[C@]3(C)[C@H](CC[C@@H]4[C@@]5(C)CC=C(c6ccc(C(=O)O)cc6)C(C)(C)[C@@H]5CC[C@]43C)[C@@H]12 [Example 174, 4-((1R,3aS,5aR,5bR,7aR,11aS,11bR,13aR,13bR)-3a-(aminomethyl)-5a,5b,8,8,11a-pentamethyl-1-(prop-1-en-2-yl)-2,3,3a,4,5,5a,5b,6,7,7a,8,11,11a,11b,12,13,13a,13b-octadecahydro-1H-cyclopenta[a]chrysen-9-yl)benzoic acid]
pEC50 (class symbol): > 7.00
